Common to all, as to assay type: ADME, organism-based
The nature of data set [1]: Volume of distribution at steady state in C57BL/6J mouse at 5 mg/kg, iv by LC-MS/MS analysis. The note with it: in vivo, read-out: Vdss.
A short description of data set [2]: Tmax in C57BL/6J mouse at 20 mg/kg, po via gavage by LC-MS/MS analysis. The note with it: in vivo.
A short description of data set [3]: AUC (0 to infinity) in C57BL/6J mouse at 5 mg/kg, iv by LC-MS/MS analysis. Further details: dose 5 mg/kg, time infinity, route intravenous. The settings on record: in vivo.
A short description of data set [4]: Half life in C57BL/6J mouse at 5 mg/kg, iv by LC-MS/MS analysis. The note with it: in vivo.
Data set [5] can be described thus: Plasma concentration in CD-1 mouse at 50 mg/kg, po after 1.25 hrs.
Data set [6] can be described thus: Plasma concentration in fasted C57BL/6J mouse at 50 mg/kg, po after 45 mins.
Data set [7] in a line: AUC (0 to infinity) in C57BL/6J mouse at 20 mg/kg, po via gavage by LC-MS/MS analysis. Further details: dose 20 mg/kg, route oral, time infinity. The note with it: in vivo.
Data set [8] can be described thus: Plasma concentration in C57BL/6J mouse at 50 mg/kg, po after 45 mins by LC-MS/MS analysis.
The nature of data set [9]: Cmax in C57BL/6J mouse at 20 mg/kg, po via gavage by LC-MS/MS analysis. Further details: dose 20 mg/kg, route oral. The note with it: in vivo.
The nature of data set [10]: AUClast in C57BL/6J mouse at 20 mg/kg, po via gavage by LC-MS/MS analysis. Further details: dose 20 mg/kg, time 0 - last, route oral. The settings on record: in vivo.
A short description of data set [11]: Half life in C57BL/6J mouse at 20 mg/kg, po via gavage by LC-MS/MS analysis. The settings on record: in vivo.
Data set [12] is described as follows: MRT in C57BL/6J mouse at 20 mg/kg, po via gavage by LC-MS/MS analysis. The settings on record: in vivo.
The nature of data set [13]: MRT in C57BL/6J mouse at 5 mg/kg, iv by LC-MS/MS analysis. The note with it: in vivo.
The nature of data set [14]: AUClast in C57BL/6J mouse at 5 mg/kg, iv by LC-MS/MS analysis. Further details: dose 5 mg/kg, route intravenous, time 0 - last. The note with it: in vivo.
Data set [15] in a line: Plasma concentration in fasted C57BL/6J mouse at 30 mg/kg, sc after 45 mins.
Data set [16] can be described thus: Clearance in C57BL/6J mouse at 5 mg/kg, iv by LC-MS/MS analysis. The settings on record: in vivo.
The nature of data set [17]: Apparent volume of distribution in C57BL/6J mouse at 5 mg/kg, iv by LC-MS/MS analysis. The settings on record: in vivo, read-out: Vz.
The nature of data set [18]: Oral bioavailability in C57BL/6J mouse at 20 mg/kg via gavage by LC-MS/MS analysis. The settings on record: in vivo.

`COc1ccc(SCc2cnc(SCc3c(F)cc(-c4nn[nH]n4)cc3F)n2-c2ccc(F)cc2)cc1OC`: the Vd in data set [1] turned out to be 4.44 L/kg; in [17], 8.24 L/kg. Also, in [2], the Tmax turned out to be 30 min. Also, the AUC(0-inf) in [3] was 0.39 µg·h/mL; in data set [7], 0.148 µg·h/mL. Moreover, the half-life in data set [4] is 26.7 min; in data set [11], 164 min. Moreover, the concentration at 1.25 h in data set [5] worked out at 0.02 µM. The concentration at 0.75 h is 1.03 µM in data set [6], 1.18 µM in [8] and 15.8 µM in data set [15]. In [9], this molecule had a Cmax of 0.0681 µg/mL. The AUC(0-t) in data set [10] is 0.0984 µg·h/mL; in data set [14], 0.379 µg·h/mL. Also, the results for the mean residence time MRT in data set [12] and in data set [13] were 82.2 min and 17 min, respectively. The clearance in [16] was 12.8 L/h/kg. The bioavailability in data set [18] was 6.48%.

The term Tmax denotes the time from dosing to the highest level. Usually AUC(0-inf) stands for total exposure, with the tail of the curve extrapolated. A higher AUC(0-inf) goes with high exposure. By half-life is commonly meant how long it takes for the measured level to halve. As usually defined, the Cmax is the highest concentration seen after dosing. For orientation: AUC(0-t) means exposure summed from dosing to a finite time, without extrapolation to infinity. The low end stands for less exposure, the high end for more exposure. A word on the MRT: it is a mean duration of stay, worked out from the concentration-time curve. A word on the clearance: it is a measure of how efficiently the substance is removed, as volume per time. A high value points to a high capacity for elimination. In general, bioavailability refers to the share of a dose that reaches the circulation, judged against a reference dose that is usually intravenous. Lower therefore signals little systemic uptake.
